The source of these data is patent EP0303483A2, “Novel lymphokine and compositions thereof” (THE UNIVERSITY OF BRITISH COLUMBIA, priority 1987, dated 1989).

In this assay the test system is BDF1 spleen cells. Nature of the assay: CTL induction, PHA-P-mediated cytotoxicity assay (51Cr-labelled P815 targets), BDF1 spleen cells. Type of assay: cell-based, mice. As to conditions: 5 x 10³ BDF1 spleen cells. As for the experimental part: Cultures and Assays: The culture medium used was Iscove's Modified Dulbecco's medium supplemented with 10% fetal bovine serum (Bocknek, Rexdale, Ontario), 5 x 10⁻⁵M 2-mercaptoethanol, 50 U/ml of Penicillin and 50 µg/ml streptomycin. All cultures were incubated at 37°C in 5% CO₂ in humid air.
For CTL assays, cultures were set up by incubating the indicated number of spleen cells, lymph node cells or thymocytes with the appropriate lymphokine in conical bottomed microtiter plates (Flow Laboratories, #76-023-05) as previously described by Teh et al, 1983, supra. Five days later the cultures were assessed for cytotoxic activity in phytohemaglutinin (PHA-P)-mediated cytotoxicity assay as described by Bevan and Cohn, J. Immunol 1975 114:559. This assay detects CTL of all specificities. A total of 3 x 10³ ⁵¹Cr-labelled P815 (H-2^d) mastocytoma target cells (available from ATCC®) and 10 µg/ml of PHA-P were added to each well. Spontaneous release during the 3.5 hr assay period was about 10% of the maximum releasable counts.

Take `CCCCCCCCCCCCCC(=O)O[C@@H]1[C@@H](C)[C@@]2(O)[C@@H](C=C(CO)C[C@]3(O)C(=O)C(C)=C[C@@H]23)[C@@H]2C(C)(C)[C@]12OC(C)=O` [PMA, phorbol-12-myristate-13-acetate]: the “% specific lysis (M SE)” value (PMA 0.03 ng/ml with rIL-2 20 U/ml) is 3.5 ± 1.5%; the “% specific lysis (M SE)” value (PMA 0.1 ng/ml alone) is on record as -2.2 ± 1.4%; the “% specific lysis (M SE)” value (PMA 0.1 ng/ml with rIL-2 20 U/ml) is on record as 15.7 ± 5.1%; the “% specific lysis (M SE)” value (PMA 0.3 ng/ml alone) was -3.2 ± 1.7%; the “% specific lysis (M SE)” value (PMA 0.3 ng/ml with rIL-2 20 U/ml) was found to be 14.8 ± 3.3%; the “% specific lysis (M SE)” value (PMA 1.0 ng/ml alone) was -2.5 ± 0.9%. In addition, the “% specific lysis (M SE)” value (PMA 1.0 ng/ml with rIL-2 20 U/ml) is given as 2.8 ± 1.3%; the “% specific lysis (M SE)” value (PMA 3.0 ng/ml alone) is recorded as -1.0 ± 1.8%; the “% specific lysis (M SE)” value (PMA 3.0 ng/ml with rIL-2 20 U/ml) worked out at 4.3 ± 1.4%; the “% specific lysis (M SE)” value (PMA 10.0 ng/ml alone) is reported as -0.9 ± 1.6%; the “% specific lysis (M SE)” value (PMA 10.0 ng/ml with rIL-2 20 U/ml) is reported as -0.4 ± 0.9%.
